How the values were obtained:
[1] = tested on: differentiation of bone marrow cell-derived macrophages (BMMs) into osteoclasts; assay: Osteoclast differentiation of bone marrow cell-derived macrophages (M-CSF/RANKL, TRAP staining, osteoclast count); format: cell-based, mice; conditions: compared with WEAR at the same concentration
Description: Specifically, bone marrow cells of mice were cultured in α-MEM medium containing M-CSF (60 ng/ml) and 10% FBS for 3 days to obtain bone marrow cell-derived macrophages (BMMs), which were used as osteoclast progenitor cells. To generate osteoclasts, 1×10^4 pieces of the obtained BMMs were placed in per well of a 96-well plate, cultured for 4 days in a medium containing M-CSF (60 ng/ml) and RANKL (50 ng/ml), and the BMM were treated with hot water extract of Agastache rugosa (WEAR; 10, 33, 100, 200 μg/ml) or ethanol extract of Agastache rugosa (EEAR; 10, 33, 100 μg/ml) under the same culture condition. After fixing the cells with 10% formalin, TRAP (Tartrate-resistant acid phosphatase) staining was performed using naphthol AS-MS phosphate and Fast red violet LB salt, and TRAP-positive cells having three or more nuclei (osteoclasts) were counted. Data are presented as mean±standard deviation, and statistical analysis was performed using one-way ANOVA with Dunnett test, **p<0.01.
IC50 (inhibitory concentration 50), the concentration showing 50% inhibition efficiency, was calculated using PraphPad Prism software.
Specifically, WEAR-PO, WEAR-ED, P0-3 kDA Fx, P0-10 kDA Fx, P0-30 kDA Fx, P0-100 kDA Fx, P0-300 kDA Fx […], respectively, and the osteoclast differentiation inhibitory effect was assessed in the same manner as in Example <3-1>.

[2] = tested on: bone marrow cell-derived macrophages (BMMs); assay: Cell viability of osteoclast progenitor cells (CCK-8); format: cell-based, mice; conditions: 5 and 10 μg/ml, 2 days
Description: Specifically, 1.2×10^4 pieces of bone marrow cell-derived macrophages (BMMs) were placed in per well of a 96-well plate, and then cultured for 2 days in a medium containing M-CSF (60 ng/ […] ) in which hot water extract of Agastache rugosa extract (WEAR; 5, 10, 20, 33, 100 and 200 μg/ml), ethanol extract of Agastache rugosa (EEAR; 10, 33 and 100 μg/ml) or isoagastachoside (5 and 10 μg/ml) samples were added. Cell viability was determined by measuring absorbance at 450 nm using Cell counting Kit-8 (CCK-8, Dojindo Inc.), percentage of untreated controls and data are presented as mean±standard deviation, and statistical analysis was performed using one-way ANOVA with Dunnett test, **p<0.01.

COc1ccc(-c2cc(=O)c3c(O)cc(O[C@@H]4O[C@H](CO)[C@@H](O)[C@H](O)[C@H]4OC(C)=O)cc3o2)cc1 [isoagastachoside]
inhibitory effect on osteoclast differentiation (in words) ([1]; 10 μg/ml): inhibited osteoclast differentiation very significantly compared to WEAR at the same concentration | inhibitory effect on osteoclast differentiation (in words) ([1]; 5 and 10 μg/ml): better inhibitory effect on osteoclast differentiation than WEAR at the same concentration | effect on cell survival [2]: no effect in cell survival

Reference: US12472221B2, “Composition for inhibiting osteoclasts containing agastache rugosa extract as active ingredient, and use thereof” (Korea Institute of Oriental Medicine, priority 2019, dated 2025)
